Assay results reported in patent US8242109B2, “Compositions and methods relating to novel compounds and targets thereof” (priority 2007, dated 2012).
Like-named read-outs stand apart in the source and are kept apart here.

Columns and labels:
Ramos cells = experiment: Cytotoxicity in Ramos cells; assay type: cell-based; details: Homo sapiens; cytotoxicity in Ramos cells; read-out: Ramos Cell EC50
Method: (§1) The compounds listed in Table 4 were tested for activity against F1F0-ATPase and cytotoxicity in Ramos cells. Inhibition of ATP synthesis and hydrolysis by the F1F0-ATPase was measured as described in K. M. Johnson et al., Chemistry & Biology 2005, 12, 485-496. Cytotoxicity in Ramos cells was measured as described in K. M. Johnson et al., Chemistry & Biology 2005, 12, 485-496, or using the alamarBlue™ Assay with fluorescence detection (U.S. Pat. No. 5,501,959) as supplied and described by Invitrogen (Carlsbad, Calif.).

F1F0-ATPase = target: T1, F1F0-ATPase (Bos taurus, UniProt P13621); experiment: Inhibition of ATP synthesis and hydrolysis by the F1F0-ATPase; assay type: biochemical
T1 construct: from tissue; host or cells: bovine sub-mitochondrial particles (SMPs)
Method: as §1

## O=C1Nc2ccc(Cl)cc2C(c2ccc3[nH]c(=O)[nH]c3c2)=NC1Cc1ccccc1Cl (centres unmarked) [Compound 41, (Z)-7-chloro-3-(2-chlorobenzyl)-5-(2-oxo-2,3-dihydro-1H-benzo[d]imidazol-5-yl)-1H-benzo[e][1,4]diazepin-2(3H)-one]
Ramos cells
  EC50: < 5 µM
F1F0-ATPase
  IC50: < 5 µM

## CC(C)NC(=O)Nc1ccc(C2=NC(Cc3ccccc3C(F)(F)F)C(=O)Nc3ccc(Cl)cc32)cc1 (centres unmarked) [Compound 2, (Z)-1-(4-(7-chloro-2-oxo-3-(2-(trifluoromethyl)benzyl)-2,3-dihydro-1H-benzo[e][1,4]diazepin-5-yl)phenyl)-3-isopropylurea]
Ramos cells
  EC50: < 5 µM
F1F0-ATPase; read-out: ATPase IC50
  IC50: 5 to 10 µM

## CCOCCNC(=O)Nc1ccc(C2=NC(Cc3ccccc3Cl)C(=O)Nc3ccc(Cl)cc32)cc1 (centres unmarked) [Compound 10, (Z)-1-(4-(7-chloro-3-(2-chlorobenzyl)-2-oxo-2,3-dihydro-1H-benzo[e][1,4]diazepin-5-yl)phenyl)-3-(2-ethoxyethyl)urea]
Ramos cells
  EC50: < 5 µM
F1F0-ATPase; read-out: ATPase IC50
  IC50: 5 to 10 µM

## CCOCCNC(=O)Nc1ccc(C2=NC(Cc3ccccc3Br)C(=O)Nc3ccc(Cl)cc32)cc1 (centres unmarked) [Compound 16, (Z)-1-(4-(3-(2-bromobenzyl)-7-chloro-2-oxo-2,3-dihydro-1H-benzo[e][1,4]diazepin-5-yl)phenyl)-3-(2-ethoxyethyl)urea]
Ramos cells
  EC50: < 5 µM
F1F0-ATPase; read-out: ATPase IC50
  IC50: 5 to 10 µM

## O=C(NCC(F)(F)F)Nc1ccc(C2=NC(Cc3ccccc3Br)C(=O)Nc3ccc(Cl)cc32)cc1 (centres unmarked) [Compound 13, (Z)-1-(4-(3-(2-bromobenzyl)-7-chloro-2-oxo-2,3-dihydro-1H-benzo[e][1,4]diazepin-5-yl)phenyl)-3-(2,2,2-trifluoroethyl)urea]
Ramos cells
  EC50: < 5 µM
F1F0-ATPase; read-out: ATPase IC50
  IC50: < 5 µM

## CN1C(=O)C(Cc2ccc(C(F)(F)F)cc2)N=C(c2ccc(O)cc2)c2cc(Cl)ccc21 (centres unmarked) [Compound 36, (Z)-7-chloro-5-(4-hydroxyphenyl)-1-methyl-3-(4-(trifluoromethyl)benzyl)-1H-benzo[e][1,4]diazepin-2(3H)-one]
Ramos cells
  EC50: 5 to 10 µM
F1F0-ATPase
  IC50: < 5 µM

## CN1C(=O)C(Cc2ccccc2C(F)(F)F)N=C(c2ccc(O)cc2)c2cc(Cl)ccc21 (centres unmarked) [Compound 32, (Z)-7-chloro-5-(4-hydroxyphenyl)-1-methyl-3-(2-(trifluoromethyl)benzyl)-1H-benzo[e][1,4]diazepin-2(3H)-one]
Ramos cells
  EC50: 5 to 10 µM
F1F0-ATPase
  IC50: 5 to 10 µM

## CCc1ccc(CC2N=C(c3ccc(O)cc3)c3cc(Cl)ccc3N(C)C2=O)cc1 (centres unmarked) [Compound 27, (Z)-7-chloro-3-(4-ethylbenzyl)-5-(4-hydroxyphenyl)-1-methyl-1H-benzo[e][1,4]diazepin-2(3H)-one]
Ramos cells
  EC50: 5 to 10 µM
F1F0-ATPase
  IC50: 5 to 10 µM

## CN1C(=O)C(Cc2ccccc2Cl)N=C(c2ccc(O)cc2)c2cc(Cl)ccc21 (centres unmarked) [Compound 34, (Z)-7-chloro-3-(2-chlorobenzyl)-5-(4-hydroxyphenyl)-1-methyl-1H-benzo[e][1,4]diazepin-2(3H)-one]
Ramos cells
  EC50: 5 to 10 µM
F1F0-ATPase
  IC50: < 5 µM

## Cc1cccc(CC2N=C(c3ccc(O)cc3)c3cc(Cl)ccc3N(C)C2=O)c1 (centres unmarked) [Compound 20, (Z)-7-chloro-5-(4-hydroxyphenyl)-1-methyl-3-(3-methylbenzyl)-1H-benzo[e][1,4]diazepin-2(3H)-one]
Ramos cells
  EC50: > 10 µM
F1F0-ATPase
  IC50: > 10 µM
